The text below walks through data of paper PMC11133381, “Necroptosis induced by ruthenium (II) complexes as mitochondrial disruptors” (Cell Death Discovery, 2024).

The subject of assay [1] is HT29 cells. The assay can be described thus: Drug combination study (IC50, combination index, CompuSyn). It is filed as cell-based, human. To be noted: combinations at 1:1 ratio. As to the method:
In drug combination studies, cells were incubated with TRZ2 combined with 5-fluorouracil (5-FU), oxaliplatin (OXA), and irinotecan (IRI) chemotherapeutics (kindly provided by Hospital Santa Maria, Lisbon, Portugal) at a ratio of 1:1. The effect of combined treatments was evaluated using the CompuSyn software 1.0 (ComboSyn, Inc. and PD Science, LLC). Briefly, the combination index (CI) is a tool to analyze the interaction between drugs allowing to distinguish between synergistic, additive, and antagonistic effects. CI values are calculated considering the concentration of drugs in combination to produce a specific effect (Fraction affected—Fa) and the concentration of drugs to produce that same effect individually. The final CI value is calculated by the average of CI values at Fa 50, 75, 90, and 95%. CI value < 1 indicates synergism while a CI value > 1 indicates antagonism. Fa-CI plot between the levels of different fractions affected against the CI values was also created using CompuSyn software to interpret the type of interactions between TRZ2 and chemotherapeutic drugs. The data points below the additivity line (CI = 1) indicate synergism.

Assay [2] deals with HT29 cells. The assay can be described thus: TSZ (TNF-α + Z-VAD + BV6)-induced necroptosis, AK release. The assay is classed as cell-based, human. To be noted: Nec-1 30 μM, GSK872 10 μM, 24 h. As to the method:
As positive control for necroptosis induction, HT29 cells were treated with 20 ng/mL recombinant human TNF-α (#300-01A, PeproTech EC Ltd., London, UK), 10 μM Z-Val-Ala-Asp-fluoromethylketon (Z-VAD-FMK or Z-VAD) pan-caspase inhibitor (#ALX-260-020, Enzo Life Sciences, Farmingdale, NY, USA), and 250 nM BV6 Smac mimetic (#B4653, ApexBio, Houston, USA), L929 cells were treated with 10 ng/mL recombinant murine TNF-α (#315-01 A, PeproTech), and HepG2 cells were treated with 10 μM doxorubicin (DOXO) (#D1515, Sigma-Aldrich). […]
(§1) For evaluation of cell death and viability, cells were plated in 96-well plates at 5 × 10^3 cells/well for next-day treatments. MTS metabolism was evaluated as an indicator of cell viability using CellTiter 96® AQueous non-radioactive cell proliferation assay (Promega, Madison, WI, USA), according to the manufacturer’s instructions. Changes in absorbance were measured at 490 nm using a GloMax®-MultiDetection System (Promega). General cell death was evaluated using the ToxiLight^TM BioAssay Kit (Lonza Walkersville Inc., Walkersville, MD, USA), by determining the quantities of adenylate kinase (AK) released from cells with permeabilized plasma membranes and present in the extracellular medium. The bioluminescent signals were recorded using also the GloMax®-MultiDetection System.

Assay [3] deals with HT29 cells. The assay can be described thus: Antiproliferative MTS assay, HT29 cells, 72 h. The assay is classed as cell-based, human. The conditions noted are these: 72 h compound incubation. As to the method: as §1
(§2) The primary drug screen was performed using the HCT116 and HT29 cell lines. Cells were seeded in 96-well plates at 5 × 10^3 cells/well and 24 h after, exposed to Ru-TRZ compounds and derivatives at a range of concentrations from 0.012 to 243 μM. Cell proliferation was assessed 72 h later using the MTS assay. As a secondary screen, selected hits were tested using HT29, HepG2, and AML12 wild-type cells seeded in 96-well plates at 5 × 10^3 cells/well. In the following day, cells were exposed to selected compounds at the same range of concentrations for additional 24 h. Cell death was evaluated by the ToxiLight assay. All measurements were performed in duplicate. The half-maximal effective concentration (EC50) and half-maximal inhibitory concentration (IC50) were calculated using the GraphPad Prism Software version 8.0.2 (GraphPad Software, Inc., San Diego, CA, USA) with the log (inhibitor) versus response (variable slope) function.
In general terms: Formazan colour is commonly taken as a measure of viable cells.

For another assay, the system named is HCT116 cells. The assay can be described thus: Antiproliferative MTS assay, HCT116 cells, 72 h. The assay is classed as cell-based, human. To be noted: 72 h compound incubation. As to the method: as §1, §2
Another assay concerns HepG2 cells. The assay can be described thus: Cytotoxicity by AK release (ToxiLight), HepG2 cells, 24 h. It is filed as cell-based, human. The conditions noted are these: 24 h compound incubation. As to the method: as §1
(§3) The primary drug screen was performed using the HCT116 and HT29 cell lines. […] Cell proliferation was assessed 72 h later using the MTS assay. […] Cell death was evaluated by the ToxiLight assay. […] The half-maximal effective concentration (EC50) and half-maximal inhibitory concentration (IC50) were calculated using the GraphPad Prism Software version 8.0.2 (GraphPad Software, Inc., San Diego, CA, USA) with the log (inhibitor) versus response (variable slope) function.

Assay [4] relates to HT29 cells. The assay can be described thus: Mitochondrial ROS production (MitoSOX Red). It is filed as cell-based, human. The conditions noted are these: 10 µM, 15 min. Here is the method:
Mitochondrial superoxide abundance was quantified by fluorometric quantification. Briefly, HT29 or AML12 cells were plated on a 96-well plate at 5 ×10^3 cells/well and on the next day treated with 10 µM Ru-TRZ, or vehicle control, for additional 15 min. MitoSOX™ Red (Invitrogen, Thermo Fisher Scientific) diluted 1:1000 in HBSS was added (100 μL per well) and incubated at 37 °C in a CO2 incubator for 10 min. Cells were then washed with PBS to remove the excess of dye and fluorescence intensity was measured using a Varioskan™ LUX multimode microplate reader (Thermo Scientific) with excitation and emission wavelengths of 510 and 580 nm, respectively. Fluorescence values were normalized by the cell mass content.

Assay [5] deals with HT29 cells. The assay can be described thus: Cytotoxicity by AK release (ToxiLight), HT29 cells, 24 h. It is filed as cell-based, human. As to the method:
as §1, §3

The subject of the next assay is AML12 cells. The assay can be described thus: Cytotoxicity by AK release (ToxiLight), AML12 hepatocytes, 24 h. The assay is classed as cell-based, mouse. To be noted: 24 h compound incubation. As to the method: as §1, §3
For assay [6], the system named is HT29 cells. The assay can be described thus: Mitochondrial transmembrane potential (JC-1). The assay is classed as cell-based, human. The conditions noted are these: 2 h. As to the method: JC-1 (Sigma-Aldrich) is a cationic dye that represents a reliable fluorescent probe for the assessment of mitochondrial transmembrane potential (ΔΨm). […] HT29 or AML12 cells were plated on a 96-well plate at 5 × 10^3 cells/well and on the next day treated with Ru-TRZ compounds (1 and 5 µM) for 2 h. Carbonyl cyanide m-chlorophenyl hydrazone (CCCP), a mitochondrial depolarizing agent, was used as positive control (200 µM; 4 h). Emitted fluorescence was measured at 530 nm and 590 nm using the GloMax®-MultiDetection System (Promega) and the ratio 590/530 emission intensity was calculated.

Assay [7] relates to caspase-3/7 activity in HT29 cells. The assay can be described thus: Caspase-Glo 3/7 assay. To be noted: 10 µM, 24 h, p < 0.001. It is filed as cell-based, human. As to the method: To determine caspase-3/7 activity, HT29 cells were seeded in 96-well plates at 5 ×10^3 cells/well. Twenty-four hours later, cells were incubated with 10 µM Ru-TRZ, or vehicle control, for additional 24 h. Caspase-3 and -7 activation status was measured using the Caspase-Glo® 3/7 Assay (Promega), according to the manufacturer’s instructions. The luminescent signal was recorded using the GloMax®-MultiDetection System (Promega).

[8] abbreviates: Homo sapiens, HT-29, 24 h incubation.

Broadly, the IC50 is the concentration at which inhibition is half-maximal. In the case of `O=c1[nH]cc(F)c(=O)[nH]1` [5-FU, 5-fluorouracil], the 50% inhibitory concentration (IC50) in the assay with HT29 cells [1] (setting [8]) is 29.9 µM.
As to `CC(C)S(=O)(=O)c1ccc2nccc(Nc3ccc4scnc4c3)c2c1` [GSK872], the “Effect on TSZ-induced cell damage (AK release)” value in the assay with HT29 cells [2] is given as “significantly decreased TSZ-induced AK release”.
For `CCc1c2c(nc3ccc(OC(=O)N4CCC(N5CCCCC5)CC4)cc13)-c1cc3c(c(=O)n1C2)COC(=O)[C@]3(O)CC` [IRI, irinotecan], the 50% inhibitory concentration (IC50) with HT29 cells [1] (setting [8]) turned out to be 44 µM.
As for `CN1C(=O)C(Cc2c[nH]c3ccccc23)NC1=S` (centres unmarked) [Nec-1, Necrostatin-1], in the assay on HT29 cells [2], the “Effect on TSZ-induced cell damage (AK release)” value is given as “rescued”.
As for `O=C1[O][Pt]2([NH][C@@H]3CCCC[C@H]3[NH]2)[O]C1=O` [OX, oxaliplatin], the IC50 in the assay on HT29 cells [1] (24 h incubation) turned out to be 10.8 µM.
On to `CN(N=Nc1ccc(C#N)cc1)C(=O)c1ccccc1.O=S(=O)([O-])C(F)(F)F.[Ru+2].c1cc[cH-]c1.c1ccc(P(CCP(c2ccccc2)c2ccccc2)c2ccccc2)cc1` [TRZ4], for which the values for the IC50 with HT29 cells [3] and with HCT116 cells were 0.23 µM and 0.55 µM, respectively.
As to `CN(C)N=Nc1ccc(C#N)cc1.O=S(=O)([O-])C(F)(F)F.c1cc[cH-]c1.c1ccc([P]2(c3ccccc3)CC[P](c3ccccc3)(c3ccccc3)[Ru+2]2)cc1` [TRZ5], the results for the IC50 in the assay on HT29 cells [3] and with HCT116 cells were 0.31 µM and 0.22 µM, respectively.
On the same counts, the results for `N#Cc1ccc(NC(=O)CCOCCOCCOCCN)cc1.O=S(=O)([O-])C(F)(F)F.[Ru+2].c1cc[cH-]c1.c1ccc(P(CCP(c2ccccc2)c2ccccc2)c2ccccc2)cc1` [TRZ6] are 3.54 µM and 2.42 µM.
In general, EC50 refers to the midpoint of the concentration-response curve. On to `CCCC(=O)Nc1ccc(C#N)cc1.O=S(=O)([O-])C(F)(F)F.c1cc[cH-]c1.c1ccc([P]2(c3ccccc3)CC[P](c3ccccc3)(c3ccccc3)[Ru+2]2)cc1` [TRZ7], for which the EC50 in the assay with HepG2 cells was 16.8 µM; with HT29 cells [5] (AK release, 24 h compound incubation), 15.2 µM; in the assay on AML12 cells, 40.2 µM. Also, the “Increase of mitochondrial ROS” value in the assay with HT29 cells [4] is about 3 fold. Further, the figures for the IC50 in the assay with HT29 cells [3] and in the assay with HCT116 cells were 0.36 µM and 0.55 µM, respectively. The “Cell death (AK release)” value in the assay with HT29 cells [5] (10 µM, 24 h, partially reverted by Z-VAD, Nec-1 and GSK872) was “high levels of cell death”. For the same compound, the “Loss of ΔΨm” value with HT29 cells [6] (1 µM, JC-1, p < 0.05) is listed as “significant loss of ΔΨm”; with HT29 cells [6] (5 µM, JC-1, CCCP 200 µM 4 h as positive control), “loss of ΔΨm similar to the one induced by CCCP”. The “Increase in caspase-3/7 activity” value in assay [7] was “up to 4 fold”.
`N#Cc1ccc(NC(=O)COCCOCCOCCN=[N+]=[N-])cc1.O=S(=O)([O-])C(F)(F)F.[Ru+2].c1cc[cH-]c1.c1ccc(P(CCP(c2ccccc2)c2ccccc2)c2ccccc2)cc1` [TRZ8]: the results for the IC50 in the assay with HT29 cells [3] and in the assay on HCT116 cells were 0.27 µM and 0.46 µM, respectively.
